Results taken from patent US4791215A, “Derivatives of glutamic acid and aspartic acid” (priority 1984, dated 1988).

Assays:
morphine analgesia = test: Increase in analgesia of morphine, Tail Flick Test (Experiment 1); type: in vivo, rats; conditions: for percentage variation of latency of pain sensation / M (10-90) ± SE, mean percentage variation of latency: compound 10 mg/kg i.p. + morphine 2 mg/kg; for M (10-90) ± SE, mean percentage variation of latency: mean 10-90 min; for Power ratio with respect to morphine alone: rat, in vivo
Outline: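 Non-fasted male rats (150-200 g); a tail point is exposed to a 75 °C heat source and latency to tail movement recorded, 8 s cut-off. Readings taken before and 10, 20, 30, 45, 60 and 90 min after analgesic treatment; percentage variation calculated per animal.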

[1] = test system: CCK-8 induced contraction of guinea pig gall bladder; test: Anti-CCK activity on gall bladder strips in vitro; conditions: CCK-8 10 ng/ml
Method: ANTI-CCK ACTIVITY ON GUINEA PIG GALL BALDDERS IN VITRO
A longitudinal strip of guinea pig gall bladder was placed in a bath of isolated members in the presence of Krebs at a temperature of 32° C. with continuous oxygenation with an oxygen-CO2 mixture (95-5V/V).
The isometric contractions were detected by means of a force transducer and recorded.
The gall bladder was made to contract with the use of a 10 ng/ml concentration of CCK-8; the antagonistic activity of the compounds of the invention on the contracting effect of the CCK was determined with the use of different concentrations and the ED 50 value, that is the concentration in μg/ml of a compound which could antagonise 50% of the contracting effect of the CCK, was determined.

SMILES | percentage variation of latency of pain sensation (morphine analgesia; 10') [%] | percentage variation of latency of pain sensation (morphine analgesia; 20') [%] | percentage variation of latency of pain sensation (morphine analgesia; 30') [%] | percentage variation of latency of pain sensation (morphine analgesia; 45') [%] | percentage variation of latency of pain sensation (morphine analgesia; 60') [%] | percentage variation of latency of pain sensation (morphine analgesia; 90') [%] | M (10-90) ± SE, mean percentage variation of latency (morphine analgesia) [%] | Power ratio with respect to morphine alone (morphine analgesia) | ED50 (concentration antagonising 50% of contracting effect of CCK-8) [1] [µg/mL]
CCCN(CCC)C(=O)C(CCC(=O)O)NC(=O)c1ccc(C)cc1C (stereo not drawn) [Compound C-32] | 21.8 ± 5 | 58.6 ± 17 | 83.5 ± 10 | 89.8 ± 8 | 78.4 ± 13 | 52.2 ± 22 | 64.0 ± 25 | 2.15 | > 300
CCCN(CCC)C(=O)C(CCC(=O)O)NC(=O)c1c(C)cc(C)cc1C (stereo not drawn) [Compound C-33] | -0.1 ± 12 | 30.9 ± 8 | 38.7 | 41.7 ± 16 | 48.7 ± 21 | 46.6 ± 12 | 34.4 ± 18 | 1.15 | 131.7
CCCCNC(=O)C(CCC(=O)O)NC(=O)c1ccc(C)c(C)c1 (stereo not drawn) [Compound C-42] | 49.0 ± 31 | 65.9 ± 24 | 80.1 ± 9 | 59.1 ± 20 | 33.5 ± 20 | 61.4 ± 12 | 58.2 ± 16 | 1.95 | 50.1
Cc1ccc(C(=O)NC(CCC(=O)O)C(=O)NC2CCCCC2)cc1C (stereo not drawn) [Compound C-47] | 24.5 | 63.5 ± 18 | 52.3 ± 17 | 80.1 ± 22 | 73.2 ± 17 | 49.3 ± 19 | 57.1 ± 20 | 1.92 | 35.1
CCc1ccc(C(=O)NC(CCC(=O)O)C(=O)NC2CCCCC2)cc1 (stereo not drawn) [Compound C-48] | 42.1 ± 14 | 59.5 ± 8 | 50.1 ± 21 | 78.4 | 43.7 ± 30 | 44.9 ± 18 | 53.1 ± 14 | 1.78 | 119.1
CCCCN(CCCC)C(=O)C(CCC(=O)O)NC(=O)c1ccc(C)c(C)c1 (stereo not drawn) [Compound C-54] | 77.0 ± 10 | 89.1 ± 11 | 100 ± 0 | 99.2 ± 0.8 | 69.6 ± 16 | 63.2 ± 19 | 83.0 ± 15 | 2.78 | 1.2
CCCCCN(CCCCC)C(=O)C(CCC(=O)O)NC(=O)c1ccc(C)c(C)c1 (stereo not drawn) [Compound C-55] | 89.3 ± 16 | 86.2 ± 12 | 94.4 | 100 ± 0 | 100 ± 0 | 81.7 ± 13 | 88.6 ± 12 | 2.97 | 0.5
CN(C)C(=O)CCC(NC(=O)c1ccc(Cl)c(Cl)c1)C(=O)O [Compound D-1] | 75.0 ± 16.0 | 100.0 ± 0.0 | 100.0 ± 0.0 | 86.4 ± 14.0 | 100.0 ± 0.0 | 51.0 ± 21.0 | 85.4 ± 19.7 | 2.86 | > 200
CCCCNC(=O)CC(NC(=O)c1ccc(Cl)c(Cl)c1)C(=O)O [Compound D-3] | 63.8 ± 17.0 | 79.9 ± 13.0 | 100.0 ± 0.0 | 58.6 ± 18.0 | 33.8 ± 18.0 | 32.9 ± 10.0 | 61.5 | 2.06 | > 200
CCCCN(CCCC)C(=O)CCC(NC(=O)c1ccc(Br)cc1)C(=O)O [Compound D-4] | 72.8 ± 15.0 | 95.8 ± 3.0 | 96.3 ± 4.0 | 85.5 | 87.5 ± 8.0 | 45.3 ± 6.0 | 80.5 ± 19.3 | 2.70 | > 200
O=C(NC(CCC(=O)N1CCOCC1)C(=O)O)c1ccc(Br)cc1 [Compound D-6] | 31.2 ± 22.0 | 45.8 ± 23.0 | 50.7 | 44.5 ± 24.0 | 45.3 ± 24.0 | 28.2 ± 19.0 | 41.0 ± 9.0 | 1.37 | > 200
O=C(NC(CCC(=O)N1CCCCC1)C(=O)O)c1ccc(Br)cc1 [Compound D-7] | 31.8 ± 19.0 | 48.0 ± 16.0 | 70.5 ± 15.0 | 73.7 ± 13.0 | 88.6 | 32.4 ± 19.0 | 57.5 ± 23.5 | 1.93 | > 200
O=C(NC(CCC(=O)N1CCCCC1)C(=O)O)c1ccc(Cl)c(Cl)c1 [Compound D-9] | 88.5 ± 19.0 | 74.0 ± 16.0 | 70.9 ± 16.0 | 73.0 ± 15.0 | 84.5 ± 12.0 | 79.9 ± 12.0 | 75.1 ± 6.0 | 2.52 | > 200
